# Measurements: patent US9676780B2, “Piperazine-substituted [1,2,4]triazolo[1,5-C]quinazolin-5-amine compounds with A2A antagonist properties” (MERCK SHARP & DOHME CORP., priority 2012, dated 2017)
# pEC50: −log10 of the molar value.
# Molecular target: T1, human A2a receptor (Homo sapiens, UniProt P29274)
# T1 construct: purchased Perkin-Elmer RBHA2AM400UA; host or cells: HEK293
# Assay: A2a receptor competition binding assay (Scintillation Proximity, tritiated radioligand)
# Conditions: A2a EC50, membranes from HEK293 cells expressing the human A2a receptor; 0.5 nM tritiated ligand; SPA beads; one hour at room temperature
# Description: Binding affinities of compounds of the invention for the human A2a receptor were determined in a competition binding assay using Scintillation Proximity technology. […] The beads were then allowed to settle to the bottom of the wells for 1 hr, after which the membrane-associated radioactivity was determined by scintillation counting in a TopCount microplate reader. Ki values were determined using the Cheng-Prusoff equation.
# • HEK293 cells expressing the human, rat, dog or monkey adenosine 2a receptor (Purchased from Perkin-Elmer # RBHA2AM400UA). • The Tritiated compound was prepared in-house by MRL Radiochemistry according to published methods. • Wheatgerm agglutinin-coated yttrium silicate SPA beads (GE Healthcare #RPNQ0023). […] This is a 2.5× solution. The final concentration in the assay is 0.5 nM. Calculate the concentration by counting two 5 ul aliquots. Membrane Preparation • Use 0.25 ug of membrane/well. Dilute membranes to 9.7 ug/ml in assay buffer. Treat with 20 ug/ml adenosine deaminase (ADA) for 15 minutes at room temperature to degrade endogenous adenosine. Membrane-Bead Mixture • Use 100 ug/well wheatgerm agglutinin-coated yttrium silicate SPA beads. • Mix ADA-treated membranes and SPA beads together for 30 min prior to assay. […] Incubate for one hour at room temperature with agitation. • Include total binding (assay buffer+1% DMSO) and non-specific binding (CGS15943, 1 uM) wells. Counting • Allow the beads to settle for one hour. • Count in TopCount. Calculations • A curve fitting program (i.e., Prism, Activity Base, Chemcart) is used to determine the EC50.
# The Ki value is calculated using the Cheng-Prusoff equation. Ki=EC50/(1+(radioligand concentration/Kd))
# T1 sequence (P29274 whole entry): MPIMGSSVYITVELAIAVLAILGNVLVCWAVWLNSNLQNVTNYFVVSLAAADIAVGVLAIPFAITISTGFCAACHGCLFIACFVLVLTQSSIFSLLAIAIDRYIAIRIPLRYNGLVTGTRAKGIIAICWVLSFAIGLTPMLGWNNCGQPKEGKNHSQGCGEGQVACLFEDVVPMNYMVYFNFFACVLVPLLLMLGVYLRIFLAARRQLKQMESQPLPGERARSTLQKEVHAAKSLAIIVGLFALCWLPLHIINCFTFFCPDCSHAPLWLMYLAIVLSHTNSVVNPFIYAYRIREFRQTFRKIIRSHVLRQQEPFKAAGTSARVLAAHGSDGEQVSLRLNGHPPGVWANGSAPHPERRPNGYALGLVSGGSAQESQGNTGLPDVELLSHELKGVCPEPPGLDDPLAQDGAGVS
row,SMILES,pEC50
1,COc1cccc2c1nc(N)n1nc(CN3C4CCC3C3CCC4N3C(=O)c3ccc(C(F)(F)F)cc3)nc21 [Ex-203],8.07
2,COc1cccc2c1nc(N)n1nc(CN3C4CCC3C3CCC4N3C(=O)c3ccc(F)cc3)nc21 [Ex-204],7.94
3,COc1cccc2c1nc(N)n1nc(CN3C4CCC3C3CCC4N3c3ccc(C(F)(F)F)cn3)nc21 [Ex-205],8.39
4,COc1cc(F)cc2c1nc(N)n1nc(CN3C4CCC3CN(Cc3ccccc3)C4)nc21 [Ex-206],7.51
5,COc1cccc2c1nc(N)n1nc(CN3C4CCC3C3CCC4N3)nc21 [Ex-208],6.84

# Same assay, conditions: membranes from HEK293 cells expressing the human A2a receptor; 0.5 nM tritiated ligand; SPA beads; one hour at room temperature; read-out: A2a EC50
row,pEC50,SMILES
1,8.24,COc1ccccc1N1CCN(Cc2nc3c4cccc(OC)c4nc(N)n3n2)CC1(C)C [Ex-187]
2,7.90,CCOC(=O)N1CCN(Cc2nc3c4cccc(OC)c4nc(N)n3n2)C2(CC2)C1 [Ex-188]
3,8.51,COCCOc1ccc(N2CCN(Cc3nc4c5cccc(OC)c5nc(N)n4n3)C3(CC3)C2)cc1 [Ex-189]
4,8.17,COCCOc1cccc(N2CCN(Cc3nc4c5cccc(OC)c5nc(N)n4n3)C3(CC3)C2)c1 [Ex-190]
5,8.09,COc1cccc2c1nc(N)n1nc(CN3CCN(c4ccc(F)cc4)CC34CC4)nc21 [Ex-191]
6,6.82,COc1cccc2c1nc(N)n1nc(CN3CCN(CCF)CC34CC4)nc21 [Ex-192]
7,6.89,COCCN1CCN(Cc2nc3c4cccc(OC)c4nc(N)n3n2)C2(CC2)C1 [Ex-193]
8,7.61,COc1cccc2c1nc(N)n1nc(CN3CCN(S(=O)(=O)C4CC4)CC34CC4)nc21 [Ex-194]
9,7.38,COc1cccc2c1nc(N)n1nc(CN3CCN(c4ccc(F)cc4)C4(CC4)C3)nc21 [Ex-195]
10,7.02,COc1cccc2c1nc(N)n1nc(CN3CCN(CCC(F)(F)F)CC34CC4)nc21 [Ex-196]
11,7.97,COc1cccc2c1nc(N)n1nc(CN3CCN(c4ccc(C(F)(F)F)cn4)CC3(C)C)nc21 [Ex-199]
12,7.81,COc1cccc2c1nc(N)n1nc(CN3CCN(C(=O)c4ccc(C(F)(F)F)cc4)CC3(C)C)nc21 [Ex-200]
13,7.30,COc1cccc2c1nc(N)n1nc(CN3[C@H](C)CN(C(=O)c4ccc(F)cc4)C[C@@H]3C)nc21 [Ex-201]
14,7.54,COc1cccc2c1nc(N)n1nc(CN3CCN(C(=O)c4ccc(F)cc4)CC3(C)C)nc21 [Ex-202]
15,8.03,COc1ccc(CN2CCN(Cc3nc4c5cccc(OC)c5nc(N)n4n3)CC2=O)cc1 [Ex-209]
16,8.11,COc1cccc2c1nc(N)n1nc(CN3CCN(Cc4ccc(C)cc4)C(=O)C3)nc21 [Ex-210]
17,8.00,COc1cc(F)cc2c1nc(N)n1nc(CN3CCN(Cc4ccc(F)cc4)C(=O)C3)nc21 [Ex-211]

row,SMILES,pEC50
1,COc1cc(F)cc2c1nc(N)n1nc(CN3CC4CCC(C3)N4Cc3ccccc3)nc21 [Ex-207],6.84
